Like-named read-outs stand apart in the source and are kept apart here.

Assay [1] relates to HepG2 cells. Briefly: Sulforhodamine B protein staining (SRB) assay in HepG2. The note with it: Homo sapiens. It counts as cell-based, human. Here is the method: (§1) Sulfor hod am ine B p rotei n st ai ning (SRB) assay
(§2) Cell pr oliferat ion was eva lua ted by sul for hod amine B pr ot ein st aini ng (SRB) assa y10-12.
(§3) Briefly, cel ls were se ede d int o 96-well pl ates, cul tur ed overni ght , and trea ted with correspond ing com poun ds for 72 h. Cells were the n fixe d with 10% trichl or oa cetic aci d and st ained with sul for hoda mine B (Sigm a). Sul for hoda mine B in the cells was di sso lved in 10 mmol/L Tris-HCl and was measured at 515 nm usi ng a multiw ell spect ropho tometer (VERSA max, Mol ecul ar Devi ces, Sunnyva le, CA). The inhi bi tion rat e on cell pr olif eratio n was cal culated for each well as (A515contr ol cells-A 515tr eated cells)/A515contr ol cells×100 % (A515:
(§4) OD va lue at 515 nm ). The averag e IC50 va lue s were de termine d by Logit method from at leas t t hr eei nde pe nde nt test s.
Background: Sulforhodamine B stains cellular protein and so reports cell mass.

Assay [2] addresses NAMPT (Homo sapiens, UniProt P43490). Briefly: NAMPT activity assay by fluorescence of NMN derivative (HTS system), IC50 determination. Format: biochemical. Details: His-tag; made in house; host or cells: E. coli BL21-CodonPlus (DE3)-RIL. The conditions noted are these: for IC50: recombinant human NAMPT, read-out: NAMPT IC50.
Assay [3] deals with A549 cells. As to the kind of experiment: SRB assay in A549. Format: cell-based, human. The conditions noted are these: Homo sapiens; A549, SRB, 10-fold concentration gradient; read-out: anti-proliferation IC50, initial screen. Here is the method: as §1, §2, §3, §4
Assay [4] deals with HCT116 cells. Briefly: SRB assay in HCT116. It counts as cell-based. The note with it: Homo sapiens, HCT-116; HCT116, SRB, 10-fold concentration gradient; read-out: anti-proliferation IC50, initial screen. As for the experimental part:
as §1, §2, §3, §4

[5] abbreviates: HepG2, 72 h, HepG2, second test, 2-fold concentration gradient, 72 hours, read-out: SRB assay in HepG2: IC50.
The mark [6] stands for this setting: HepG2, HepG2, SRB, 10-fold concentration gradient, read-out: anti-proliferation IC50, initial screen.

NAMPT, sequence (P43490 whole entry): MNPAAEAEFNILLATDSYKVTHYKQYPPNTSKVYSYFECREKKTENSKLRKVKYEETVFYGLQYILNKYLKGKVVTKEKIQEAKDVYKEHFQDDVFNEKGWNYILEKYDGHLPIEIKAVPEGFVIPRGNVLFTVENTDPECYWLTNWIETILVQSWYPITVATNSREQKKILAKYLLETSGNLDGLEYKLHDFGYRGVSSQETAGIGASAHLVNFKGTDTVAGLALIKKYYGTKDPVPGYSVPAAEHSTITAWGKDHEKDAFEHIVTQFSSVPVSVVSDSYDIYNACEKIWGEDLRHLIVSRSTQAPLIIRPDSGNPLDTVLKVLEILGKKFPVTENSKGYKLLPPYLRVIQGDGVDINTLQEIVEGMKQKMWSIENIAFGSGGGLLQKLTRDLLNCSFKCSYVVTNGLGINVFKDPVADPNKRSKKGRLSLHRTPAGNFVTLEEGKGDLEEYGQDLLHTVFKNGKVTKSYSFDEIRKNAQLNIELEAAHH

Regarding `O=C(/C=C/c1cccnc1)NCCCCC1CCN(C(=O)c2ccccc2)CC1` [FK866, reference compound], in assay [1] (setting [5]), the IC50 was found to be 50 nM.
As to `O=S(=O)(c1ccc(NC(=S)NCc2cccnc2)cc1)N1CCNCC1` [MS2], in assay [2] (mean ± s.e.), the IC50 amounted to 0.0845 ± 0.0075 µM.
In the case of `O=S(=O)(Nc1ccccc1)c1ccc(NC(=S)NCc2cccnc2)cc1` [MS3], the IC50 in assay [2] (mean ± s.e.) worked out at 0.022 ± 0.0046 µM.
Still for that read-out and setting: to `CN1CCN(S(=O)(=O)c2ccc(NC(=S)NCc3cccnc3)cc2)CC1` [MS4] belongs 0.0964 ± 0.0123 µM; to `CC(=O)N1CCN(S(=O)(=O)c2ccc(NC(=S)NCc3cccnc3)cc2)CC1` [MS5, 1-(4-((4-acetylpiperazin-1-yl)sulfonyl)phenyl)-3-(pyridin-3-ylmethyl)thiourea], 0.0405 ± 0.0018 µM.
Turning to `O=S(=O)(c1ccc(NC(=S)NCc2cccnc2)cc1)N1CCN(c2ccccn2)CC1` [MS6, 1-(4-((4-(pyridin-2-yl)piperazin-1-yl)sulfonyl)phenyl)-3-(pyridin-3-ylmethyl)thiourea], in assay [2] (mean ± s.e.), the IC50 stood at 0.0177 ± 0.0034 µM.
As for `O=S(=O)(c1ccc(NC(=S)NCc2cccnc2)cc1)N1CCN(C2CCCCC2)CC1` [MS8, 1-(4-((4-cyclohexylpiperazin-1-yl)sulfonyl)phenyl)-3-(pyridin-3-ylmethyl)thiourea], the IC50 in assay [2] (mean ± s.e.) worked out at 0.0142 ± 0.0024 µM.
Still for that read-out and setting: to `O=S(=O)(c1ccc(NC(=S)NCc2cccnc2)cc1)N1CCCC1` [MS9, 1-(pyridin-3-ylmethyl)-3-(4-(pyrrolidin-1-ylsulfonyl)phenyl)thiourea] belongs 0.0439 ± 0.0024 µM; to `O=S(=O)(NCc1ccccc1)c1ccc(NC(=S)NCc2cccnc2)cc1` [MS10], 0.0196 ± 0.0002 µM; to `O=S(=O)(c1ccc(NC(=S)NCc2cccnc2)cc1)N1CCOCC1` [MS11], 0.0217 ± 0.0008 µM.
`CCOC(=O)N=C(NCc1cccnc1)Nc1ccc(S(=O)(=O)N2CCCCC2)cc1` [MS12]: the IC50 in assay [2] (values given in μM) is > 166 µM.
As for `O=C(c1ccc(NC(=S)NCc2cccnc2)cc1)N1CCCCC1` [MS15], the IC50 in assay [2] (mean ± s.e.) was 0.0422 ± 0.0031 µM.
Take `O=C(Nc1ccc(S(=O)(=O)N2CCCCC2)cc1)OCc1cccnc1` [MS17]: in assay [2] (mean ± s.e.), the IC50 was 0.0428 ± 0.004 µM.
As for `N=C(NCc1cccnc1)Nc1ccc(S(=O)(=O)N2CCCCC2)cc1` [MS18], the IC50 in assay [2] (mean ± s.e.) is 0.765 ± 0.0748 µM.
For `N=C(NCc1cccnc1)Nc1ccc(C(=O)N2CCCCC2)cc1` [MS19], the IC50 in assay [2] (mean ± s.e.) was 14.5 ± 0.203 µM; in assay [2] (values given in μM) it was 14.5 ± 0.2 µM.
`CCOC(=S)Nc1ccc(C(=O)N2CCCCC2)cc1` [MS20]: in assay [2], the “inhibition on NAMPT activity (in words)” value is listed as “no NAMPT inhibition”. For the same compound, in assay [2] (values given in μM), the IC50 is > 150 µM.
On to `N#CN=C(NCc1cccnc1)Nc1ccc(S(=O)(=O)N2CCCC2)cc1` [MS21], for which the IC50 in assay [2] (mean ± s.e.) turned out to be 0.577 ± 0.0387 µM.
Same read-out and setting: the figure for `O=S(=O)(c1ccc(NC(=S)NCc2cccnc2)cc1)N1CCN(Cc2ccc(F)cc2)CC1` [MS22] is 0.012 ± 0.0015 µM.
Regarding `O=S(=O)(c1ccc(NC(=S)NCc2cccnc2)cc1)N1CCN(Cc2c(F)cccc2F)CC1` [MS23], the IC50 is > 10000 nM in assay [1] (setting [5]); < 5000 nM in assay [1] (setting [6]); < 5000 nM in assay [3]; < 5000 nM in assay [4]; 0.0099 ± 0.0012 µM in assay [2] (mean ± s.e.).
Consider `O=S(=O)(c1ccc(NC(=S)NCc2cccnc2)cc1)N1CCN(Cc2cccc(F)c2)CC1` [MS24], for which the IC50 in assay [2] (mean ± s.e.) turned out to be 0.0089 ± 0.0005 µM.
Same read-out and setting: the figure for `O=S(=O)(c1ccc(NC(=S)NCc2cccnc2)cc1)N1CCN(Cc2ccccc2F)CC1` [MS25] is 0.0123 ± 0.002 µM; for `Cc1ccc(CN2CCN(S(=O)(=O)c3ccc(NC(=S)NCc4cccnc4)cc3)CC2)cc1` [MS26] it is 0.0105 ± 0.002 µM; for `Cc1ccccc1CN1CCN(S(=O)(=O)c2ccc(NC(=S)NCc3cccnc3)cc2)CC1` [MS27] it is 0.0124 ± 0.0009 µM.
For `Cc1cccc(CN2CCN(S(=O)(=O)c3ccc(NC(=S)NCc4cccnc4)cc3)CC2)c1` [MS28], the IC50 in assay [1] (setting [5]) is > 10000 nM; in assay [1] (setting [6]) it was < 5000 nM; in assay [3], < 5000 nM; in assay [4], < 5000 nM; in assay [2] (mean ± s.e.), 0.0168 ± 0.0015 µM.
Turning to `O=S(=O)(c1ccc(NC(=S)NCc2cccnc2)cc1)N1CCN(Cc2cccc(Cl)c2)CC1` [MS29], the IC50 in assay [2] (mean ± s.e.) was 0.0126 ± 0.0017 µM.
Same read-out and setting: the figure for `O=S(=O)(c1ccc(NC(=S)NCc2cccnc2)cc1)N1CCN(Cc2ccccc2Cl)CC1` [MS30] is 0.0157 ± 0.0025 µM.
Turning to `O=S(=O)(c1ccc(NC(=S)NCc2cccnc2)cc1)N1CCN(Cc2ccc(Cl)cc2)CC1` [MS31], the IC50 in assay [1] (setting [5]) was 5810 ± 710 nM; in assay [1] (setting [6]) it was < 5000 nM; in assay [3] it was < 5000 nM; in assay [4], < 5000 nM; in assay [2] (mean ± s.e.), 0.0137 ± 0.0016 µM.
In the case of `O=S(=O)(c1ccc(NC(=S)NCc2cccnc2)cc1)N1CCN(Cc2ccc(Br)cc2)CC1` [MS32], the IC50 is 4860 ± 150 nM in assay [1] (setting [5]); < 5000 nM in assay [1] (setting [6]); < 5000 nM in assay [3]; < 5000 nM in assay [4]; 0.0242 ± 0.0016 µM in assay [2] (mean ± s.e.).
Turning to `O=S(=O)(c1ccc(NC(=S)NCc2cccnc2)cc1)N1CCN(Cc2ccc3ccccc3c2)CC1` [MS33], the IC50 in assay [1] (setting [5]) is 8940 ± 450 nM; in assay [1] (setting [6]), < 5000 nM; in assay [3], < 5000 nM; in assay [4] it was < 5000 nM; in assay [2] (mean ± s.e.), 0.0295 ± 0.0008 µM.
Consider `O=S(=O)(c1ccc(NC(=S)NCc2cccnc2)cc1)N1CCN(Cc2ccc(OC(F)(F)F)cc2)CC1` [MS35], for which the IC50 in assay [1] (setting [5]) was 4830 ± 130 nM; in assay [1] (setting [6]) it was < 5000 nM; in assay [3], < 5000 nM; in assay [4], < 5000 nM; in assay [2] (mean ± s.e.), 0.0369 ± 0.0046 µM.
In the case of `CCCCc1ccc(CN2CCN(S(=O)(=O)c3ccc(NC(=S)NCc4cccnc4)cc3)CC2)cc1` [MS36], in assay [2] (mean ± s.e.), the IC50 was determined as 0.0798 ± 0.0061 µM.
On the same count and under the same terms, to `Nc1ccc(CN2CCN(S(=O)(=O)c3ccc(NC(=S)NCc4cccnc4)cc3)CC2)cc1` [MS38] belongs 0.0199 ± 0.0028 µM.
On the same count and under the same terms, to `O=S(=O)(c1ccc(NC(=S)NCc2cccnc2)cc1)N1CCN(Cc2nc3ccccc3[nH]2)CC1` [MS39] belongs 0.014 ± 0.0003 µM; to `O=S(=O)(c1ccc(NC(=S)NCc2cccnc2)cc1)N1CCN(Cc2ccoc2)CC1` [MS40], 0.0487 ± 0.0045 µM.
The same measure, in the same setting: to `O=S(=O)(c1ccc(NC(=S)NCc2cccnc2)cc1)N1CCN(Cc2ccsc2)CC1` [MS41] belongs 0.0225 ± 0.0008 µM; to `O=S(=O)(c1ccc(NC(=S)NCc2cccnc2)cc1)N1CCN(Cc2ccco2)CC1` [MS42], 0.0191 ± 0.002 µM; to `O=S(=O)(c1ccc(NC(=S)NCc2cccnc2)cc1)N1CCN(Cc2cccs2)CC1` [MS43], 0.0388 ± 0.0018 µM.
In the case of `O=S(=O)(c1ccc(NC(=S)NCc2cccnc2)cc1)N1CCN(Cc2ccncc2)CC1` [MS44], in assay [2] (mean ± s.e.), the IC50 turned out to be 0.0137 ± 0.0004 µM.
Regarding `O=S(=O)(c1ccc(NC(=S)NCc2cccnc2)cc1)N1CCN(Cc2cccnc2)CC1` [MS45], the IC50 in assay [2] (mean ± s.e.) is 0.0098 ± 0.0009 µM.
`Cc1ccc(N2CCN(S(=O)(=O)c3ccc(NC(=S)NCc4cccnc4)cc3)CC2)cc1` [MS46]: the IC50 in assay [2] (mean ± s.e.) was 0.0154 ± 0.0016 µM.
The same measure, in the same setting: the figure for `COc1ccc(CCNC(=O)c2cc3ccccc3s2)cc1OC` [compound 2161] is 0.149 ± 0.021 µM; for `O=C1C[C@H](c2ccc(O)cc2)Oc2c1c(O)cc(O)c2[C@@H]1C(=O)c2c(O)cc(O)cc2O[C@H]1c1ccc(O)cc1` [compound 3909] it is 0.504 ± 0.124 µM.
Still for that read-out and setting: the figure for `O=C(NCc1ccc(S(=O)(=O)NCc2cc(F)cc3c2OCOC3)s1)c1ccc(Cl)cc1` [compound 4162] is 0.777 ± 0.084 µM; for `COc1cccc(/C=C2/N=C(c3ccc(NC(=O)c4cccs4)cc3)OC2=O)c1OC` [compound 6443] it is 0.352 ± 0.045 µM; for `Cc1ccc2oc(=O)n(CCC(N)=NOC(=O)c3ccccc3)c2c1` [compound 7391] it is 0.855 ± 0.17 µM.

Values taken from article PMC4603696, “Discovery and characterization of novel small-molecule inhibitors targeting nicotinamide phosphoribosyltransferase” (Scientific Reports, 2015).
